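Protocol summary: plate cells (96-well), add compound at 5 concentrations, incubate 48 h, interpolate endpoints linearly. GI50: concentration for 50% inhibition of growth. TGI is the concentration that stops growth completely.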
Assays:
Experiment in all cases: growth of human tumour cells (NCI), 48 h
786-0 renal = system: 786-0 renal
A498 renal = system: A498 renal
EKVX NSCLC = system: EKVX NSCLC
K-562 leukemia = system: K-562 leukemia
MDA-MB-435 = system: MDA-MB-435
MDA-N = system: MDA-N
NCI-H23 lung = system: NCI-H23 lung
SW-620 colon = system: SW-620 colon
UO-31 renal = system: UO-31 renal

| SMILES | TGI (786-0 renal) [µM] | TGI (A498 renal) [µM] | TGI (EKVX NSCLC) [µM] | TGI (K-562 leukemia) [µM] | TGI (MDA-MB-435) [µM] | TGI (MDA-N) [µM] | TGI (NCI-H23 lung) [µM] | TGI (SW-620 colon) [µM] | TGI (UO-31 renal) [µM] | GI50 (A498 renal) [µM] | GI50 (EKVX NSCLC) [nM] | GI50 (K-562 leukemia) [nM] | GI50 (MDA-MB-435) [nM] | GI50 (SW-620 colon) [nM] | GI50 (UO-31 renal) [nM] | GI50 (NCI-H23 lung) [µM] |
| --- | --- | --- | --- | --- | --- | --- | --- | --- | --- | --- | --- | --- | --- | --- | --- | --- |
| Oc1ccccc1/C=N/c1nc2cc3sc(/N=C/c4ccccc4O)nc3cc2s1 | > 100 | > 100 | > 100 | > 100 | > 100 | > 100 | > 100 | > 100 | > 100 |  |  |  |  |  |  |  |
| CCOC(=N)n1c(=O)n(C2=NCCN2)c2ccccc21 | > 100 | > 100 | > 100 | > 100 | > 100 | > 100 | > 100 | > 100 | > 100 |  |  |  |  |  |  |  |
| CCOC(=O)c1c(-c2ccc(OC)cc2)c(C#N)c(=S)n(C2OC(COC(C)=O)C(OC(C)=O)C(OC(C)=O)C2OC(C)=O)c1C (stereo unspecified) | > 100 | > 100 | > 100 | > 100 | > 100 | > 100 | > 100 | > 100 | 6.02 |  |  |  |  |  |  |  |
| O=C(/C=C/c1ccsc1)c1ccsc1 | 47.4 | > 100 | > 100 |  | 42.4 | 49.7 | 54.8 | 60.1 | 28.7 |  |  |  |  |  |  |  |
| C=CCn1c(=O)ccn(COCCO)c1=O |  | > 100 | > 100 | > 100 | > 100 | > 100 | > 100 | > 100 | > 100 |  |  |  |  |  |  |  |
| COc1cc([N+](=O)[O-])c(OC)cc1-c1nc2sc(Cl)cn2c1/C=N/Nc1ccccn1 |  | 19.4 | > 50 | > 50 | > 50 |  |  | > 50 | > 50 | 8.95 | > 50000 | > 50000 | > 50000 | > 50000 | > 50000 |  |
| COc1nc(C#CCC(C)O)nc(OC)n1 (stereo unspecified) |  | 77.1 | 39.3 | > 100 | 54.6 | > 100 | 43.4 | 47.7 | 37.8 |  |  |  |  |  |  |  |
| CCN(CC)CCOc1ccc(N2C(=O)c3cc(OC)c(OC)cc3C2=O)cc1 | > 100 | > 100 | > 100 | > 100 | > 100 | > 100 | > 100 | > 100 |  |  |  |  |  |  |  |  |
| Clc1ccc(-c2nn3c(-c4ccncc4)nnc3s2)cc1 | 61.9 |  | > 100 | > 100 | > 100 | > 100 | > 100 | > 100 | > 100 |  |  |  |  |  |  |  |
| O=P(c1ccccc1)(c1ccccc1)N1O[C@@H](c2ccccc2)C=C[C@H]1c1ccccc1 | 23.3 |  | 24.1 | 80.1 | 18.7 | 12.7 | 25.2 | 31.8 | 17.3 |  |  |  |  |  |  |  |
| CCCNC(=O)CCC(C)[C@H]1CCC2C3C(C[C@H](OC(C)=O)[C@@]21C)[C@@]1(C)CCC2(C[C@H]1C[C@H]3OC(C)=O)OOC1(CCC(C)CC1)OO2 (stereo partly specified) | 33.4 | 74.5 | 30.6 | > 100 | 39.5 | 28.6 | 18.7 |  | 2.42 |  |  |  |  |  |  |  |
| Cc1cc2[nH]c3[nH]c(=O)[nH]c(=O)c3c2cc1C | > 100 | > 100 | > 100 |  | > 100 | > 100 | > 100 | > 100 | > 100 |  |  |  |  |  |  |  |
| O=C1CN2C(c3ccccc3)=NN(c3ccc([N+](=O)[O-])cc3)C2(c2ccccc2)c2cc(Cl)ccc2N1CC1CC1 (stereo unspecified) | > 100 | > 100 | > 100 | > 100 | > 100 |  | > 100 | > 100 | > 100 |  |  |  |  |  |  |  |
| O=C(NCCN1CCOCC1)c1ccc2cc(C(=O)N3CC(CCl)c4ccc([N+](=O)[O-])cc43)[nH]c2c1 (stereo unspecified) | 38.4 | 20 | 86.3 | > 100 | 49.2 |  | > 100 | > 100 | > 100 |  |  |  |  |  |  |  |
| CC(C)COP(=O)(OCC(C)C)C(NS(=O)(=O)c1ccccc1)(C(F)(F)F)C(F)(F)F | 25.7 |  | 19 | > 100 | 22.3 | 20.6 | 14.2 | 41.6 | 7.4 |  |  |  |  |  |  |  |
| CCN(C(=S)N[C@@H](Cc1ccccc1)C(=O)N[C@@H](CC(C)C)C(=O)OC)c1ccccc1 | > 100 |  | > 100 | > 100 | > 100 | > 100 | > 100 | > 100 | > 100 |  |  |  |  |  |  |  |
| COc1cc(C2SCC(=O)N2c2ccc(NC(=O)c3ccc(N4C(=O)CSC4c4cc(OC)c(OC)c(OC)c4)cc3)cc2)cc(OC)c1OC (stereo unspecified) | > 100 |  | > 100 | > 100 | 61.4 | 64 | > 100 | > 100 | > 100 |  |  |  |  |  |  |  |
| O=C(c1cc2ccccc2cc1O)N1CCCCC1 | > 100 | 63.2 | 78.1 | 48.6 | > 100 |  |  | > 100 | > 100 |  |  |  |  |  |  |  |

| SMILES | TGI (786-0 renal) [µM] | TGI (A498 renal) [µM] | TGI (EKVX NSCLC) [µM] | TGI (K-562 leukemia) [µM] | TGI (MDA-MB-435) [µM] | TGI (MDA-N) [µM] | TGI (NCI-H23 lung) [µM] | TGI (SW-620 colon) [µM] | TGI (UO-31 renal) [µM] | GI50 (A498 renal) [µM] | GI50 (EKVX NSCLC) [nM] | GI50 (K-562 leukemia) [nM] | GI50 (MDA-MB-435) [nM] | GI50 (SW-620 colon) [nM] | GI50 (UO-31 renal) [nM] | GI50 (NCI-H23 lung) [µM] |
| --- | --- | --- | --- | --- | --- | --- | --- | --- | --- | --- | --- | --- | --- | --- | --- | --- |
| C/C(CC1C2CCCC1C2)=N\NC(N)=O (stereo unspecified) | > 100 |  | > 100 |  | > 100 | > 100 | > 100 | > 100 | > 100 |  |  |  |  |  |  |  |
| O=C(CCCN1CCC2(CC1)CC(=O)N(N1CCOCC1)C2=O)c1ccccc1 | > 100 |  | > 100 | > 100 | 35.4 | > 100 | > 100 | > 100 | > 100 |  |  |  |  |  |  |  |
| N#CCCN(CCC#N)c1ccc(/C=C2\N=C(c3ccccc3)N(c3ccc(Cl)cc3)C2=O)cc1 | > 100 | > 100 | > 100 | > 100 | > 100 | > 100 |  | > 100 | > 100 |  |  |  |  |  |  |  |
| O=c1c2cc3c(cc2[nH]c2ncccc12)OCO3 | > 10 | > 10 | > 10 | > 10 | > 10 | > 10 | > 10 | > 10 |  |  |  |  |  |  |  |  |
| Cc1c(S(=O)(=O)/N=C(\N)Nc2ccc(Cl)cc2)sc2ccc(Cl)cc12 | 33.7 | 30.1 | 33.4 | > 100 |  | 47.1 | 41.5 | 58.1 | 35.9 |  |  |  |  |  |  |  |
| Cc1ccccc1C(O)(c1nccn1C)c1nccn1C | > 100 | > 100 | > 100 | > 100 | > 100 | > 100 |  | > 100 | > 100 |  |  |  |  |  |  |  |
| COc1ccc(C(OCC2OC(n3cc(C)c(=O)[nH]c3=O)CC2n2cc(Cn3cc(F)c(=O)[nH]c3=O)nn2)(c2ccccc2)c2ccccc2)cc1 (stereo unspecified) | 21.7 | 28.6 | 23.3 |  | 3.94 | 3.53 | 27.9 | 21.4 | 23.6 |  |  |  |  |  |  |  |
| O=c1oc(-c2ccc(O)c(O)c2)cc2cccc(O)c12 | 85.9 | 42.4 | 51.2 | 49.2 | 60.3 |  | 53.6 | 78.2 | > 59.4 |  |  |  |  |  |  |  |
| Brc1cccc(Nc2nc(-c3cccs3)nc3ccc(Br)cc23)c1 | > 100 | > 100 | 98.1 | > 100 | 37.2 |  | > 100 | > 100 | > 100 |  |  |  |  |  |  |  |
| COc1ccc2cc(-c3ccc(-c4ccc(C(=N)N)s4)s3)ccc2c1 |  | 42.3 | 6.1 |  | 4.48 |  | 9.89 | 3.81 | 9.72 | 14.3 | 2140 |  | 2010 | 1910 | 2880 | 3.22 |
| CSc1cc(Cl)c(C)cc1S(=O)(=O)NC(=O)NNc1ccc(Cl)cc1 | > 100 | > 100 | > 100 | > 100 | > 100 | > 100 |  | > 100 |  |  |  |  |  |  |  |  |
| CN(C)C(=S)S | > 100 | > 100 | > 100 | > 100 | > 100 |  | > 93.3 | > 100 | > 100 |  |  |  |  |  |  |  |
| COc1ccc2nc3cc(Cl)ccc3c(NCCCNCCCNc3c4ccc(Cl)cc4nc4ccc(OC)cc34)c2c1 |  | 0.463 | 0.89 | 15.2 |  | 0.173 | 0.144 |  | 0.989 |  |  |  |  |  |  |  |
| N#C/C(=C\c1cc(Br)c(O)c(Br)c1)c1cccnc1 | 70.5 |  | 53.3 | > 100 |  | > 100 | 52.8 | > 100 | 58.1 |  |  |  |  |  |  |  |
| O=C(CNc1ccccc1Cl)Nn1c(-c2ccccc2)nc2ccccc2c1=O | 40.2 | > 100 | 36.8 | 97.2 | 37.4 |  | 40.8 | 39.7 | > 100 |  |  |  |  |  |  |  |
| COc1cc2c(cc1-c1c(C)noc1C)cc(C)c(=O)n2Cc1ccccn1 |  | 5.12 | > 100 | > 100 | 4.33 |  | > 100 | > 100 | > 100 | 0.864 | 1670 | 963 | 1250 | 2590 | 376 | 3.4 |
| c1ccc2c(c1)NC(C1OC3CCCN3C1C1Nc3ccccc3S1)S2 (stereo unspecified) | > 100 | > 100 | > 100 | > 100 | > 100 |  | > 100 | > 100 | > 100 |  |  |  |  |  |  |  |
